Assay results from ChEMBL document CHEMBL1671662, “In vitro activities of telavancin and six comparator agents against anaerobic bacterial isolates” (2009).

Assays:
[1] = system: Prevotella buccae; test: Antibacterial activity against Prevotella buccae by CLSI M11-A6 agar dilution method in presence of beta-lactamase inhibitor Sulbactam; assay type: functional; conditions: Segatella buccae
[2] = system: Prevotella corporis; test: Antibacterial activity against Prevotella corporis by CLSI M11-A6 agar dilution method in presence of beta-lactamase inhibitor Sulbactam; assay type: functional
[3] = system: Prevotella nigrescens; test: Antibacterial activity against Prevotella nigrescens by CLSI M11-A6 agar dilution method in presence of beta-lactamase inhibitor Sulbactam; assay type: functional
[4] = system: Sutterella wadsworthensis; test: Antibacterial activity against Sutterella wadsworthensis by CLSI M11-A6 agar dilution method in presence of beta-lactamase inhibitor Sulbactam; assay type: functional
[5] = system: Clostridioides difficile; test: Antibacterial activity against Clostridium difficile by CLSI M11-A6 agar dilution method in presence of beta-lactamase inhibitor Sulbactam; assay type: functional
[6] = system: Thomasclavelia ramosa; test: Antibacterial activity against Clostridium ramosum by CLSI M11-A6 agar dilution method in presence of beta-lactamase inhibitor Sulbactam; assay type: functional
[7] = system: Clostridium beijerinckii; test: Antibacterial activity against Clostridium beijerinckii by CLSI M11-A6 agar dilution method in presence of beta-lactamase inhibitor Sulbactam; assay type: functional
[8] = system: Clostridium disporicum; test: Antibacterial activity against Clostridium disporicum by CLSI M11-A6 agar dilution method in presence of beta-lactamase inhibitor Sulbactam; assay type: functional
[9] = system: Flavonifractor plautii; test: Antibacterial activity against Clostridium orbiscindens by CLSI M11-A6 agar dilution method in presence of beta-lactamase inhibitor Sulbactam; assay type: functional
[10] = system: Clostridium paraputrificum; test: Antibacterial activity against Clostridium paraputrificum by CLSI M11-A6 agar dilution method in presence of beta-lactamase inhibitor Sulbactam; assay type: functional
[11] = system: Clostridium spiroforme; test: Antibacterial activity against Clostridium spiroforme by CLSI M11-A6 agar dilution method in presence of beta-lactamase inhibitor Sulbactam; assay type: functional; conditions: Thomasclavelia spiroformis
[12] = system: Actinomyces naeslundii; test: Antibacterial activity against Actinomyces naeslundii by CLSI M11-A6 agar dilution method in presence of beta-lactamase inhibitor Sulbactam; assay type: functional
[13] = system: Bifidobacterium bifidum; test: Antibacterial activity against Bifidobacterium bifidum by CLSI M11-A6 agar dilution method in presence of beta-lactamase inhibitor Sulbactam; assay type: functional
[14] = system: Bifidobacterium breve; test: Antibacterial activity against Bifidobacterium breve by CLSI M11-A6 agar dilution method in presence of beta-lactamase inhibitor Sulbactam; assay type: functional
[15] = system: Bifidobacterium dentium; test: Antibacterial activity against Bifidobacterium dentium by CLSI M11-A6 agar dilution method in presence of beta-lactamase inhibitor Sulbactam; assay type: functional
[16] = Antibacterial activity against Bifidobacterium infantis by CLSI M11-A6 agar dilution method in presence of beta-lactamase inhibitor Sulbactam; assay type: functional, Bifidobacterium longum subsp. infantis; conditions: Bifidobacterium longum
[17] = system: Bifidobacterium pseudolongum; test: Antibacterial activity against Bifidobacterium pseudolongum by CLSI M11-A6 agar dilution method in presence of beta-lactamase inhibitor Sulbactam; assay type: functional
[18] = system: Catenibacterium mitsuokai; test: Antibacterial activity against Catenibacterium mitsuokai by CLSI M11-A6 agar dilution method in presence of beta-lactamase inhibitor Sulbactam; assay type: functional
[19] = system: Collinsella aerofaciens; test: Antibacterial activity against Colinsella aerofaciens by CLSI M11-A6 agar dilution method in presence of beta-lactamase inhibitor Sulbactam; assay type: functional
[20] = system: Coprobacillus cateniformis; test: Antibacterial activity against Coprobacillus cateniformis by CLSI M11-A6 agar dilution method in presence of beta-lactamase inhibitor Sulbactam; assay type: functional
[21] = system: Coriobacterium; test: Antibacterial activity against […] by CLSI M11-A6 agar dilution method in presence of beta-lactamase inhibitor Sulbactam; assay type: functional
[22] = system: Eggerthella lenta; test: Antibacterial activity against Eggerthella lenta by CLSI M11-A6 agar dilution method in presence of beta-lactamase inhibitor Sulbactam; assay type: functional
[23] = system: Holdemania filiformis; test: Antibacterial activity against Holdemania filiformis by CLSI M11-A6 agar dilution method in presence of beta-lactamase inhibitor Sulbactam; assay type: functional
[24] = system: Propionibacterium propionicum; test: Antibacterial activity against Propionibacterium propionicus by CLSI M11-A6 agar dilution method in presence of beta-lactamase inhibitor Sulbactam; assay type: functional; conditions: Arachnia propionica
[25] = system: Ruminococcus gnavus; test: Antibacterial activity against Ruminococcus gnavus by CLSI M11-A6 agar dilution method in presence of beta-lactamase inhibitor Sulbactam; assay type: functional; conditions: Mediterraneibacter gnavus
[26] = system: Ruminococcus albus; test: Antibacterial activity against Ruminococcus albus by CLSI M11-A6 agar dilution method in presence of beta-lactamase inhibitor Sulbactam; assay type: functional; conditions: Hominimerdicola alba
[27] = system: Ruminococcus flavefaciens; test: Antibacterial activity against Ruminococcus flavefaciens by CLSI M11-A6 agar dilution method in presence of beta-lactamase inhibitor Sulbactam; assay type: functional
[28] = system: Ruminococcus torques; test: Antibacterial activity against Ruminococcus torques by CLSI M11-A6 agar dilution method in presence of beta-lactamase inhibitor Sulbactam; assay type: functional; conditions: Mediterraneibacter torques
[29] = system: Anaerococcus prevotii; test: Antibacterial activity against Anaerococcus prevotii by CLSI M11-A6 agar dilution method in presence of beta-lactamase inhibitor Sulbactam; assay type: functional
[30] = system: Parvimonas micra; test: Antibacterial activity against Peptostreptococcus micros by CLSI M11-A6 agar dilution method in presence of beta-lactamase inhibitor Sulbactam; assay type: functional
[31] = system: Streptococcus anginosus; test: Antibacterial activity against Streptococcus anginosus by CLSI M11-A6 agar dilution method in presence of beta-lactamase inhibitor Sulbactam; assay type: functional
[32] = system: Streptococcus constellatus; test: Antibacterial activity against Streptococcus constellatus by CLSI M11-A6 agar dilution method in presence of beta-lactamase inhibitor Sulbactam; assay type: functional
[33] = system: Bacteroides ovatus; test: Antibacterial activity against Bacteroides ovatus by CLSI M11-A6 agar dilution method in presence of beta-lactamase inhibitor Sulbactam; assay type: functional
[34] = system: Bacteroides thetaiotaomicron; test: Antibacterial activity against Bacteroides thetaiotaomicron by CLSI M11-A6 agar dilution method in presence of beta-lactamase inhibitor Sulbactam; assay type: functional
[35] = system: Prevotella bivia; test: Antibacterial activity against Prevotella bivia by CLSI M11-A6 agar dilution method in presence of beta-lactamase inhibitor Sulbactam; assay type: functional

**Q.** With `CC1(C)S[C@@H]2[C@H](NC(=O)[C@H](N)c3ccccc3)C(=O)N2[C@H]1C(=O)O` [AMPICILLIN] as the compound, how does the MIC50 [1] read?
**A.** ≤ 0.12 µg/mL

**Q.** And the MIC90 [1]?
**A.** 2 µg/mL

**Q.** What about the MIC50 [2] of the same compound?
**A.** ≤ 0.12 µg/mL

**Q.** And the MIC90 [2]?
**A.** 2 µg/mL

**Q.** And the MIC50 [3]?
**A.** ≤ 0.12 µg/mL

**Q.** And the MIC90 [3]?
**A.** 2 µg/mL

**Q.** And the MIC [4]?
**A.** 0.25 µg/mL

**Q.** And the MIC [5]?
**A.** 2 µg/mL

**Q.** What about the MIC50 [5] of the same compound?
**A.** 2 µg/mL

**Q.** What about the MIC90 [5] of the same compound?
**A.** 4 µg/mL

**Q.** And the MIC50 [6]?
**A.** ≤ 0.12 µg/mL

**Q.** And the MIC90 [6]?
**A.** 0.5 µg/mL

**Q.** What about the MIC50 [7] of the same compound?
**A.** 0.25 µg/mL

**Q.** And the MIC90 [7]?
**A.** 1 µg/mL

**Q.** And the MIC50 [8]?
**A.** 0.25 µg/mL

**Q.** And the MIC90 [8]?
**A.** 1 µg/mL

**Q.** What about the MIC50 [9] of the same compound?
**A.** 0.25 µg/mL

**Q.** What about the MIC90 [9] of the same compound?
**A.** 1 µg/mL

**Q.** What about the MIC50 [10] of the same compound?
**A.** 0.25 µg/mL

**Q.** What about the MIC90 [10] of the same compound?
**A.** 1 µg/mL

**Q.** What about the MIC50 [11] of the same compound?
**A.** 0.25 µg/mL

**Q.** And the MIC90 [11]?
**A.** 1 µg/mL

**Q.** What about the MIC50 [12] of the same compound?
**A.** 0.25 µg/mL

**Q.** What about the MIC90 [12] of the same compound?
**A.** 1 µg/mL

**Q.** What about the MIC50 [13] of the same compound?
**A.** 0.25 µg/mL

**Q.** And the MIC90 [13]?
**A.** 1 µg/mL

**Q.** And the MIC50 [14]?
**A.** 0.25 µg/mL

**Q.** What about the MIC90 [14] of the same compound?
**A.** 1 µg/mL

**Q.** And the MIC50 [15]?
**A.** 0.25 µg/mL

**Q.** And the MIC90 [15]?
**A.** 1 µg/mL

**Q.** What about the MIC50 [16] of the same compound?
**A.** 0.25 µg/mL

**Q.** What about the MIC90 [16] of the same compound?
**A.** 1 µg/mL

**Q.** And the MIC50 [17]?
**A.** 0.25 µg/mL

**Q.** And the MIC90 [17]?
**A.** 1 µg/mL

**Q.** And the MIC50 [18]?
**A.** 0.25 µg/mL

**Q.** What about the MIC90 [18] of the same compound?
**A.** 1 µg/mL

**Q.** What about the MIC50 [19] of the same compound?
**A.** 0.25 µg/mL

**Q.** And the MIC90 [19]?
**A.** 1 µg/mL

**Q.** What about the MIC50 [20] of the same compound?
**A.** 0.25 µg/mL

**Q.** What about the MIC90 [20] of the same compound?
**A.** 1 µg/mL

**Q.** And the MIC50 [21]?
**A.** 0.25 µg/mL

**Q.** What about the MIC90 [21] of the same compound?
**A.** 1 µg/mL

**Q.** What about the MIC50 [22] of the same compound?
**A.** 0.25 µg/mL

**Q.** What about the MIC90 [22] of the same compound?
**A.** 1 µg/mL

**Q.** And the MIC50 [23]?
**A.** 0.25 µg/mL

**Q.** And the MIC90 [23]?
**A.** 1 µg/mL

**Q.** And the MIC50 [24]?
**A.** 0.25 µg/mL

**Q.** And the MIC90 [24]?
**A.** 1 µg/mL

**Q.** What about the MIC50 [25] of the same compound?
**A.** ≤ 0.12 µg/mL

**Q.** And the MIC90 [25]?
**A.** 1 µg/mL

**Q.** What about the MIC50 [26] of the same compound?
**A.** ≤ 0.12 µg/mL

**Q.** What about the MIC90 [26] of the same compound?
**A.** 1 µg/mL

**Q.** And the MIC50 [27]?
**A.** ≤ 0.12 µg/mL

**Q.** And the MIC90 [27]?
**A.** 1 µg/mL

**Q.** And the MIC50 [28]?
**A.** ≤ 0.12 µg/mL

**Q.** And the MIC90 [28]?
**A.** 1 µg/mL

**Q.** What about the MIC50 [29] of the same compound?
**A.** 0.25 µg/mL

**Q.** What about the MIC90 [29] of the same compound?
**A.** 0.5 µg/mL

**Q.** What about the MIC50 [30] of the same compound?
**A.** 0.25 µg/mL

**Q.** What about the MIC90 [30] of the same compound?
**A.** 0.5 µg/mL

**Q.** And the MIC50 [31]?
**A.** 0.5 µg/mL

**Q.** What about the MIC90 [31] of the same compound?
**A.** 0.5 µg/mL

**Q.** And the MIC50 [32]?
**A.** 0.5 µg/mL

**Q.** What about the MIC90 [32] of the same compound?
**A.** 0.5 µg/mL

**Q.** And the MIC50 [33]?
**A.** 2 µg/mL

**Q.** And the MIC90 [33]?
**A.** 4 µg/mL

**Q.** And the MIC50 [34]?
**A.** 4 µg/mL

**Q.** And the MIC90 [34]?
**A.** 16 µg/mL

**Q.** What about the MIC50 [35] of the same compound?
**A.** ≤ 0.12 µg/mL

**Q.** What about the MIC90 [35] of the same compound?
**A.** 2 µg/mL
